Reference: patent US20090263416A1, “REDUCTION OF ANTIBIOTIC RESISTANCE IN BACTERIA” (priority 2006, published 2009)

Experiments:
Assay type in all cases: cell-based
[1] = test system: E. coli of swine origin; assay: Curing of antibiotic resistance (replica plating); details: for curing for amoxicillin and clavulanic acid / curing for ampicillin / curing for chloramphenicol: isolates treated with EB or IDU
Procedure: (§1) Plasmid curing of antibiotic resistant bacteria was measured as described by Lakshmi and Thomas (1989) and NCCLS (2000). Briefly, aliquots (final inoculum concentration approximately 1×10^5 CFU/ml) of Salmonella isolates, E. coli isolates, and commercial isolates of E. coli XL1-blue and E. coli RK2 were added to tubes containing 1 ml aliquots of increasing concentrations of P-YCWP or YCWP (0, 0.01, 0.1, 0.3, 0.5, 1.0, 2.0, 3.0% w/v). A control culture was established by adding bacterial isolates as described above to aliquots of increasing concentrations of mannose. Known curing agents [ethidium bromide and iododeoxyuridine (IDU)] were used as positive controls, and to provide a percent curing activity. Tubes were incubated at 35° C. for 24 hr.
(§2) Following incubation, bacterial aliquots were plated on MacConkey agar plates (master plates). Antibiotic resistance after treatment was evaluated by replica plating on MacConkey agar containing predetermined concentrations of antimicrobial agents. Minimum curing concentration (MCC) was defined as the minimum concentration of compound able to “cure” bacteria, that is, remove antibiotic resistance, within a 24 hr period. A sample was considered to contain bacteria resistant to an antibiotic when greater than 1% of a sample plated on a master plate of MacConkey agar grew on an antibiotic-containing replica plate.

[2] = test system: E. coli XL1-blue; assay: Curing / plasmid loss, narrow range plasmid strain; details: FIG. 4
Procedure: as §1
(§3) Following incubation, bacterial aliquots were plated on MacConkey agar plates (master plates). Antibiotic resistance after treatment was evaluated by replica plating on MacConkey agar containing predetermined concentrations of antimicrobial agents. Minimum curing concentration (MCC) was defined as the minimum concentration of compound able to “cure” bacteria, that is, remove antibiotic resistance, within a 24 hr period. […]
(§4) Plasmids were evaluated by microbial lysis and extraction of DNA (Mini-prep System, Bio-Rad Laboratories, Hercules, Calif.), followed by electrophoretic separation on 1% agarose gel (Bio-Rad). […]

[3] = test system: S. enteritidis (ATCC 13076); assay: Curing / plasmid loss; details: streptomycin-resistant; 24 hr exposure, replica plating
Procedure: as §1, §3, §4

[4] = test system: E. coli ATCC 33766, plasmid pRK248clts; assay: Curing, broad range plasmid strain; details: tetracycline-resistant determinant; data not shown
Procedure: as §1, §2

[5] = test system: S. Cholerasuis (2); assay: Agglutination; details: sugar 100 mM
Procedure: (§5) E. coli and Salmonella isolates were evaluated for ability to agglutinate P-YCWP and YCWP by growing isolates into TIF slants (10 g peptone, 5 g NaCl, 5 g yeast extract and 15 g bacto agar per liter) for 24 hr. Sugar solutions (100 mM) of glucose, mannose, or fructose were prepared in 100 mM phosphate-buffered solution (PBS) at pH 7.2. Yeast cell wall preparations were suspended (1 g YCWP) into 1 liter of PBS. The grown isolates were resuspended in PBS and mixed with 0.1 ml PBS as control or 0.1 ml sugar solution (glucose, mannose, or fructose) to occupy bacterial attachment sites. For adherence tests, 10 μl of P-YCWP or YCWP suspension was placed on a series of microscope slides. The negative control was […] of PBS mixed with YCWP suspension. Bacterial suspension (10 μl) as described above was added, mixed using an orbital shaker, and observed under light microscope (100-1000× magnification). The ability of any of the sugars to inhibit or weaken agglutination was considered evidence that that sugar played a role in agglutination/attachment for that bacteria.

[6] = test system: E. coli (30); assay: Agglutination; details: sugar 100 mM
Procedure: as §5

[7] = test system: S. pullorum (1); assay: Agglutination; details: sugar 100 mM
Procedure: as §5

[8] = test system: Salmonella spp. (13); assay: Agglutination; details: sugar 100 mM
Procedure: as §5

CC[n+]1c(-c2ccccc2)c2cc(N)ccc2c2ccc(N)cc21 [EB, ethidium bromide]
curing for amoxicillin and clavulanic acid [1]: 100% | curing for ampicillin [1]: 5% | curing for chloramphenicol [1]: 100%

O=c1[nH]c(=O)n([C@H]2C[C@H](O)[C@@H](CO)O2)cc1I [IDU, iododeoxyuridine]
curing for neomycin ([1]; EB or IDU treatment): no curing | curing for tetracycline ([1]; EB or IDU treatment): no curing | curing for amoxicillin and clavulanic acid [1]: 100% | curing for ampicillin [1]: 5% | curing for chloramphenicol [1]: 100% | curing [2]: curing was seen | curing [3]: Neither EB nor IDU showed any curing capacity | curing of the organism carrying the broad range plasmid [4]: Neither yeast cell wall preparations nor traditional curing agents (EB, IDU) cured the organism

O=C(CO)[C@@H](O)[C@H](O)[C@H](O)CO [Fructcose, fructose]
agglutination with YCWP or P-YCWP in presence of sugar [5]: Negative (−) | agglutination with YCWP or P-YCWP in presence of sugar [6]: Negative (−) | agglutination with YCWP or P-YCWP in presence of sugar [7]: Negative (−) | agglutination with YCWP or P-YCWP in presence of sugar [8]: Negative (−)
